Assays:
Dasatinib = compound: CC1=C(C(=CC=C1)Cl)NC(=O)C2=CN=C(S2)NC3=CC(=NC(=N3)C)N4CCN(CC4)CCO [Dasatinib]; conditions: max 2 µM
In short: (§1)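 Following 24 hours at 37°C and 5% CO2, cancer cell lines in 1536-well plates with 7.5 μl DMEM/F12 or RPMI and 10% FBS were dosed for 72 hours, final DMSO typically being 0.2%. CellTiter-Glo 2.0 luminescence, scaled between blank-well and DMSO-well means, gave the viability readout. Dose responses were fitted to a two-parameter logistic curve with a non-linear mixed effects model, and the single-agent IC50 was derived from this fit.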

Doxorubicin = compound: COc1cccc2c1C(=O)c1c(O)c3c(c(O)c1C2=O)C[C@@](O)(C(=O)CO)C[C@@H]3O[C@H]1C[C@H](N)[C@H](O)[C@H](C)O1 [Doxorubicin]; conditions: max 1 µM
In short: as §1

[1] = compound: O=C(Nc1ccc2[nH]nc(-c3ccncc3)c2c1)[C@@H]1CCN(CC(=O)N2CCN(c3ccc(-c4ncccn4)cc3)CC2)C1; conditions: max 5 µM
In short: as §1

Crizotinib = compound: C[C@@H](Oc1cc(-c2cnn(C3CCNCC3)c2)cnc1N)c1c(Cl)ccc(F)c1Cl [Crizotinib]; conditions: max 10 µM
In short: as §1

Savolitinib = compound: C[C@@H](c1ccc2nccn2c1)n1nnc2ncc(-c3cnn(C)c3)nc21 [Savolitinib]; conditions: max 1 µM
In short: as §1

Alisertib = compound: COc1cc(Nc2ncc3c(n2)-c2ccc(Cl)cc2C(c2c(F)cccc2OC)=NC3)ccc1C(=O)O [Alisertib]; conditions: max 10 µM
In short: as §1

Gefitinib = compound: COc1cc2ncnc(Nc3ccc(F)c(Cl)c3)c2cc1OCCCN1CCOCC1 [Gefitinib]; conditions: max 10 µM
In short: as §1

MK-2206 = compound: NC1(c2ccc(-c3nc4ccn5c(=O)[nH]nc5c4cc3-c3ccccc3)cc2)CCC1 [MK-2206]; conditions: max 10 µM
In short: as §1

AZD8186 = compound: C[C@@H](Nc1cc(F)cc(F)c1)c1cc(C(=O)N(C)C)cc2c(=O)cc(N3CCOCC3)oc12 [AZD8186]; conditions: max 10 µM
In short: as §1

Trametinib = compound: CC(=O)Nc1cccc(-n2c(=O)n(C3CC3)c(=O)c3c(Nc4ccc(I)cc4F)n(C)c(=O)c(C)c32)c1 [Trametinib]; conditions: max 1 µM
In short: as §1

AZD1775 = compound: C=CCn1c(=O)c2cnc(Nc3ccc(N4CCN(C)CC4)cc3)nc2n1-c1cccc(C(C)(C)O)n1 [AZD1775]; conditions: max 3 µM
In short: as §1

SN-38 = compound: CCc1c2c(nc3ccc(O)cc13)-c1cc3c(c(=O)n1C2)COC(=O)[C@]3(O)CC [SN-38]; conditions: max 0.3 µM
In short: as §1

Etoposide = compound: COc1cc([C@@H]2c3cc4c(cc3[C@@H](O[C@@H]3O[C@@H]5CO[C@@H](C)O[C@H]5[C@H](O)[C@H]3O)[C@H]3COC(=O)[C@H]23)OCO4)cc(OC)c1O [Etoposide]; conditions: max 10 µM
In short: as §1

AZD5363 = compound: C1CN(CCC1(C(=O)N[C@@H](CCO)C2=CC=C(C=C2)Cl)N)C3=NC=NC4=C3C=CN4 [AZD5363]; conditions: max 10 µM
In short: as §1

SG3199 = compound: CC1=CN2[C@@H](C1)C=NC3=CC(=C(C=C3C2=O)OC)OCCCCCOC4=C(C=C5C(=C4)N=C[C@@H]6CC(=CN6C5=O)C)OC [SG3199]; conditions: max 0.001 µM
In short: as §1

AZD2811 = compound: CCN(CCO)CCCOc1ccc2c(Nc3cc(CC(=O)Nc4cccc(F)c4)[nH]n3)ncnc2c1 [AZD2811]; conditions: max 1 µM
In short: as §1

AZD0156 = compound: CN(C)CCCOc1ccc(-c2ccc3ncc4c(c3c2)n(C2CCOCC2)c(=O)n4C)cn1 [AZD0156]; conditions: max 3 µM
In short: as §1

AZD7648 = compound: Cc1cc2ncnn2cc1Nc1ncc2c(n1)n(C1CCOCC1)c(=O)n2C [AZD7648]; conditions: max 10 µM
In short: as §1

Palbociclib = compound: CC(=O)c1c(C)c2cnc(Nc3ccc(N4CCNCC4)cn3)nc2n(C2CCCC2)c1=O [Palbociclib]; conditions: max 10 µM
In short: as §1

AZD6738 = compound: C[C@@H]1COCCN1C2=NC(=NC(=C2)C3(CC3)[S@](=N)(=O)C)C4=C5C=CNC5=NC=C4 [AZD6738]; conditions: max 10 µM
In short: as §1

Olaparib = compound: O=C(c1cc(Cc2n[nH]c(=O)c3ccccc23)ccc1F)N1CCN(C(=O)C2CC2)CC1 [Olaparib]; conditions: max 10 µM
In short: as §1

Gemcitabine = compound: Nc1ccn([C@@H]2O[C@H](CO)[C@@H](O)C2(F)F)c(=O)n1 [Gemcitabine]; conditions: max 0.3 µM
In short: as §1

AZD5153 = compound: COc1nnc2ccc(N3CCC(c4ccc(OCCN5CCN(C)C(=O)[C@H]5C)cc4)CC3)nn12 [AZD5153]; conditions: max 1 µM
In short: as §1

Taselisib = compound: Cc1nc(-c2cn3c(n2)-c2ccc(-c4cnn(C(C)(C)C(N)=O)c4)cc2OCC3)n(C(C)C)n1 [Taselisib]; conditions: max 10 µM
In short: as §1

Selumetinib = compound: Cn1cnc2c(F)c(Nc3ccc(Br)cc3Cl)c(C(=O)NOCCO)cc21 [Selumetinib]; conditions: max 10 µM
In short: as §1

Paclitaxel = compound: CC(=O)O[C@H]1C(=O)[C@@]2(C)[C@H]([C@H](OC(=O)c3ccccc3)[C@]3(O)C[C@H](OC(=O)[C@H](O)[C@@H](NC(=O)c4ccccc4)c4ccccc4)C(C)=C1C3(C)C)[C@]1(OC(C)=O)CO[C@@H]1C[C@@H]2O [Paclitaxel]; conditions: max 3 µM
In short: as §1

SRA737 = compound: N#Cc1cnc(Nc2cc(NC[C@H]3CNCCO3)c(C(F)(F)F)cn2)cn1 [SRA737]; conditions: max 10 µM
In short: as §1

Lapatinib = compound: CS(=O)(=O)CCNCc1ccc(-c2ccc3ncnc(Nc4ccc(OCc5cccc(F)c5)c(Cl)c4)c3c2)o1 [Lapatinib]; conditions: max 10 µM
In short: as §1

Prexasertib = compound: COc1cccc(OCCCN)c1-c1cc(Nc2cnc(C#N)cn2)n[nH]1 [Prexasertib]; conditions: max 1 µM
In short: as §1

AZD5991 = compound: Cc1c2c(nn1C)CSCc1cc(n(C)n1)CSc1cc(c3ccccc3c1)OCCCc1c(C(=O)O)n(C)c3c-2c(Cl)ccc13 [AZD5991]; conditions: max 1 µM
In short: as §1

5-Fluorouracil = compound: O=c1[nH]cc(F)c(=O)[nH]1 [5-Fluorouracil]; conditions: max 20 µM
In short: as §1

AZD4320 = compound: CN(CC[C@H](CSC1=CC=CC=C1)NC2=C(C=C(C=C2)S(=O)(=O)NC(=O)C3=CC=C(C=C3)N4CCC(CC4)[C@H](C5=CC=CC=C5C6=CC=C(C=C6)Cl)O)S(=O)(=O)C(F)(F)F)CCO [AZD4320]; conditions: max 1 µM
In short: as §1

Carboplatin = compound: C1CC(C1)(C(=O)[O-])C(=O)[O-].N.N.[Pt+2] [Carboplatin]; conditions: max 10 µM
In short: as §1

AZD1390 = compound: CC(C)n1c(=O)n(C)c2cnc3cc(F)c(-c4ccc(OCCCN5CCCCC5)nc4)cc3c21 [AZD1390]; conditions: max 0.3 µM
In short: as §1

Venetoclax = compound: CC1(C)CCC(CN2CCN(c3ccc(C(=O)NS(=O)(=O)c4ccc(NCC5CCOCC5)c([N+](=O)[O-])c4)c(Oc4cnc5[nH]ccc5c4)c3)CC2)=C(c2ccc(Cl)cc2)C1 [Venetoclax]; conditions: max 1 µM
In short: as §1

Cell Line | IC50, cell viability 72 h (Dasatinib) | IC50, cell viability 72 h (Doxorubicin) | IC50, cell viability 72 h [1] | IC50, cell viability 72 h (Crizotinib) | IC50, cell viability 72 h (Savolitinib) | IC50, cell viability 72 h (Alisertib) | IC50, cell viability 72 h (Gefitinib) | IC50, cell viability 72 h (MK-2206) | IC50, cell viability 72 h (AZD8186) | IC50, cell viability 72 h (Trametinib) | IC50, cell viability 72 h (AZD1775) | IC50, cell viability 72 h (SN-38) | IC50, cell viability 72 h (Etoposide) | IC50, cell viability 72 h (AZD5363) | IC50, cell viability 72 h (SG3199) | IC50, cell viability 72 h (AZD2811) | IC50, cell viability 72 h (AZD0156) | IC50, cell viability 72 h (AZD7648) | IC50, cell viability 72 h (Palbociclib) | IC50, cell viability 72 h (AZD6738) | IC50, cell viability 72 h (Olaparib) | IC50, cell viability 72 h (Gemcitabine) | IC50, cell viability 72 h (AZD5153) | IC50, cell viability 72 h (Taselisib) | IC50, cell viability 72 h (Selumetinib) | IC50, cell viability 72 h (Paclitaxel) | IC50, cell viability 72 h (SRA737) | IC50, cell viability 72 h (Lapatinib) | IC50, cell viability 72 h (Prexasertib) | IC50, cell viability 72 h (AZD5991) | IC50, cell viability 72 h (5-Fluorouracil) | IC50, cell viability 72 h (AZD4320) | IC50, cell viability 72 h (Carboplatin) | IC50, cell viability 72 h (AZD1390) | IC50, cell viability 72 h (Venetoclax)
SW1710 (Bladder Carcinoma) | 0.19 µM | > 1 µM | > 5 µM | > 10 µM | > 1 µM | > 10 µM | > 10 µM | > 10 µM | > 10 µM | > 1 µM | > 3 µM | > 0.3 µM | > 10 µM | > 10 µM | > 0.001 µM | > 1 µM | > 3 µM | > 10 µM | > 10 µM | > 10 µM | > 10 µM | > 0.3 µM | > 1 µM | > 10 µM | > 10 µM | 0.0151 µM | > 10 µM | > 10 µM | 0.0864 µM | > 1 µM | > 20 µM | > 1 µM | > 10 µM | > 0.3 µM | > 1 µM
SNU-449 (Hepatocellular Carcinoma) | 1.26 µM | > 1 µM | > 5 µM | > 10 µM | > 1 µM | > 10 µM | > 10 µM | > 10 µM | > 10 µM | > 1 µM | > 3 µM | > 0.3 µM | > 10 µM | > 10 µM | > 0.001 µM | > 1 µM | > 3 µM | > 10 µM | > 10 µM | > 10 µM | > 10 µM | > 0.3 µM | > 1 µM | > 10 µM | > 10 µM | > 3 µM | > 10 µM | > 10 µM | > 1 µM | > 1 µM | > 20 µM | > 1 µM | > 10 µM | > 0.3 µM | > 1 µM
